Experimental data as given in US8044079B2, “Substituted oxindole derivatives, medicaments containing said derivatives and use thereof” (Abbott GmbH & Co. KG, priority 2005, dated 2011).

Molecular target: T1, human vasopressin V1b receptor (Homo sapiens, UniProt P47901)
T1 construct: expressed in transfected cells; host or cells: CHO-K1 (cell line hV1b_3H2_CHO), membrane preparation
T1 sequence (P47901 1-424): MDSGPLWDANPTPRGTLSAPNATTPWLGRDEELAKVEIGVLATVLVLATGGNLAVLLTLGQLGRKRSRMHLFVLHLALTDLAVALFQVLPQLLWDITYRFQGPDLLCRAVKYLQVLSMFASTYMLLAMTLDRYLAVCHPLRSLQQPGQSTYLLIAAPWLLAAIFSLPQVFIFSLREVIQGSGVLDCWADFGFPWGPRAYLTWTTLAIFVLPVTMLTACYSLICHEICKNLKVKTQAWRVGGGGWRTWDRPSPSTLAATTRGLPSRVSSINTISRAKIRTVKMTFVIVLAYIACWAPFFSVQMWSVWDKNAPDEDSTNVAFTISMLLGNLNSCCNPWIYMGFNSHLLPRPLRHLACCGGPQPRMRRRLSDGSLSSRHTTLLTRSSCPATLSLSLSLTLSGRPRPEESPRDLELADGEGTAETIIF
Test: Vasopressin V1b receptor binding test
Details: membranes of CHO-K1 cells with human V1b receptor, displacement of 1.5 nM 3H-AVP; for compounds with more than one stereogenic center the diastereomer with greater affinity
How it was run: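 Radioligand displacement on membranes carrying human V1b receptor in 50 mM tris, 10 mM MgCl2, 0.1% BSA, pH 7.4, 2% DMSO final; 60 min at room temperature, nonspecific binding with 1 μM AVP. Free ligand removed by filtration, bound counted by liquid scintillation, Ki from nonlinear regression of triplicates.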

Row | Compound | Ki [nM]
1 | COc1ccc(S(=O)(=O)N2C(=O)C(c3cc(CNCCO)ccc3OC)(N3CCC[C@H]3c3ncco3)c3ccc(Cl)cc32)cc1 (stereo partly drawn) [Example 93, 6-Chloro-3-{5-[(2-hydroxyethylamino)methyl]-2-methoxyphenyl}-1-(4-methoxybenzenesulfonyl)-3-((S)-2-oxazol-2-yl-pyrrolidin-1-yl)-1,3-dihydroindol-2-one] | 100 to 1000
2 | COc1ccc(S(=O)(=O)N2C(=O)C(c3cc(CN4CCN(C(C)C)CC4)ccc3OC)(N3CCC[C@H]3c3ncco3)c3cc(C#N)ccc32)cc1 (stereo partly drawn) [Example 94, 5-Cyano-3-[5-(4-isopropylpiperazin-1-ylmethyl)-2-methoxyphenyl]-1-(4-methoxybenzenesulfonyl)-3-((S)-2-oxazol-2-yl-pyrrolidin-1-yl)-1,3-dihydroindol-2-one] | 10 to 100
3 | COc1ccc(S(=O)(=O)N2C(=O)C(c3cc(CN4CCN(C(C)=O)CC4)ccc3OC)(N3CCC[C@H]3c3ncco3)c3cc(C#N)ccc32)cc1 (stereo partly drawn) [Example 95, 5-Cyano-3-[5-(4-acetylpiperazin-1-ylmethyl)-2-methoxyphenyl]-1-(4-methoxybenzenesulfonyl)-3-((S)-2-oxazol-2-yl-pyrrolidin-1-yl)-1,3-dihydroindol-2-one] | 10 to 100
4 | COc1ccc(S(=O)(=O)N2C(=O)C(c3cc(CN4CCOCC4)ccc3OC)(N3CCC[C@H]3c3ncco3)c3cc(Cl)ccc32)cc1 (stereo partly drawn) [Example 96, 5-Chloro-1-(4-methoxybenzenesulfonyl)-3-(2-methoxy-5-(morpholin-4-ylmethyl)phenyl)-3-((S)-2-oxazol-2-yl-pyrrolidin-1-yl)-1,3-dihydroindol-2-one] | 10 to 100
5 | CNCc1ccc(C2(N3CCC[C@H]3c3ncco3)C(=O)N(S(=O)(=O)c3ccc(OC)cc3)c3ccc(C#N)cc32)c(OC)c1 (stereo partly drawn) [Example 97, 5-Cyano-1-(4-methoxybenzenesulfonyl)-3-(2-methoxy-4-methylaminomethylphenyl)-3-((S)-2-oxazol-2-yl-pyrrolidin-1-yl)-1,3-dihydroindol-2-one] | 10 to 100
6 | CCNCc1ccc(C2(N3CCC[C@H]3c3ncco3)C(=O)N(S(=O)(=O)c3ccc(OC)cc3)c3ccc(C#N)cc32)c(OC)c1 (stereo partly drawn) [Example 98, 5-Cyano-3-(4-ethylaminomethyl-2-methoxyphenyl)-1-(4-methoxybenzenesulfonyl)-3-((S)-2-oxazol-2-yl-pyrrolidin-1-yl)-1,3-dihydroindol-2-one] | 10 to 100
7 | CCCNCc1ccc(C2(N3CCC[C@H]3c3ncco3)C(=O)N(S(=O)(=O)c3ccc(OC)cc3)c3ccc(C#N)cc32)c(OC)c1 (stereo partly drawn) [Example 99, 5-Cyano-1-(4-methoxybenzenesulfonyl)-3-(2-methoxy-4-(propylaminomethyl)phenyl)-3-((S)-2-oxazol-2-yl-pyrrolidin-1-yl)-1,3-dihydroindol-2-one] | 10 to 100
8 | COc1ccc(S(=O)(=O)N2C(=O)C(c3ccc(CNC(C)C)cc3OC)(N3CCC[C@H]3c3ncco3)c3cc(C#N)ccc32)cc1 (stereo partly drawn) [Example 100, 5-Cyano-3-[4-(isopropylaminomethyl)-2-methoxyphenyl]-1-(4-methoxybenzenesulfonyl)-3-((S)-2-oxazol-2-yl-pyrrolidin-1-yl)-1,3-dihydroindol-2-one] | 10 to 100
9 | COc1ccc(S(=O)(=O)N2C(=O)C(c3ccc(CN4CCCC4)cc3OC)(N3CCC[C@H]3c3ncco3)c3cc(C#N)ccc32)cc1 (stereo partly drawn) [Example 101, 5-Cyano-1-(4-methoxybenzenesulfonyl)-3-(2-methoxy-4-(pyrrolidin-1-ylmethyl)phenyl)-3-((S)-2-oxazol-2-yl-pyrrolidin-1-yl)-1,3-dihydroindol-2-one] | 10 to 100

Continued, values first:

Row | Ki [nM] | Compound
10 | < 10 | COc1ccc(S(=O)(=O)N2C(=O)C(c3cc(CN(C)C)ccc3OC)(N3C[C@H](O)C[C@H]3c3ncco3)c3cc(Cl)ccc32)cc1 (stereo partly drawn) [Example 102, 5-Chloro-3-(5-dimethylaminomethyl-2-methoxyphenyl)-3-((2S,4R)-4-hydroxy-2-oxazol-2-yl-pyrrolidin-1-yl)-1-(4-methoxybenzenesulfonyl)-1,3-dihydroindol-2-one]
11 | < 10 | COc1ccc(S(=O)(=O)N2C(=O)C(c3cc(CN4CCN(C)CC4)ccc3OC)(N3C[C@H](O)C[C@H]3c3ncco3)c3cc(Cl)ccc32)cc1 (stereo partly drawn) [Example 103, 5-Chloro-3-((2S,4R)-4-hydroxy-2-oxazol-2-yl-pyrrolidin-1-yl)-1-(4-methoxybenzenesulfonyl)-3-[2-methoxy-5-(4-methylpiperazin-1-ylmethyl)phenyl]-1,3-dihydroindol-2-one]
12 | 10 to 100 | COc1ccc(S(=O)(=O)N2C(=O)C(c3cc(CN4CCN(C(C)C)CC4)ccc3OC)(N3CCC[C@H]3c3ncco3)c3cc(Cl)c(Cl)cc32)cc1 (stereo partly drawn) [Example 104, 5,6-Dichloro-3-[5-(4-isopropylpiperazin-1-ylmethyl)-2-methoxyphenyl]-1-(4-methoxybenzenesulfonyl)-3-((S)-2-oxazol-2-yl-pyrrolidin-1-yl)-1,3-dihydroindol-2-one]
13 | < 10 | CNCc1ccc(OC)c(C2(N3C[C@H](O)C[C@H]3c3ncco3)C(=O)N(S(=O)(=O)c3ccc(OC)cc3)c3ccc(Cl)cc32)c1 (stereo partly drawn) [Example 105, 5-Chloro-3-((2S,4R)-4-hydroxy-2-oxazol-2-yl-pyrrolidin-1-yl)-1-(4-methoxybenzenesulfonyl)-3-(2-methoxy-5-(methylaminomethyl)phenyl)-1,3-dihydroindol-2-one]
14 | 10 to 100 | COc1ccc(S(=O)(=O)N2C(=O)C(c3cc(CNC(C)(C)C)ccc3OC)(N3CCC[C@H]3c3ncco3)c3cc(Cl)c(Cl)cc32)cc1 (stereo partly drawn) [Example 106, 5,6-Dichloro-3-[5-(tert-butylaminomethyl)-2-methoxyphenyl]-1-(4-methoxybenzenesulfonyl)-3-((S)-2-oxazol-2-yl-pyrrolidin-1-yl)-1,3-dihydroindol-2-one]
15 | 10 to 100 | COc1ccc(S(=O)(=O)N2C(=O)C(c3cc(CN4CCN(CCO)CC4)ccc3OC)(N3CCC[C@H]3c3ncco3)c3cc(Cl)c(Cl)cc32)cc1 (stereo partly drawn) [Example 107, 5,6-Dichloro-3-{5-[4-(2-hydroxyethyl)piperazin-1-ylmethyl]-2-methoxyphenyl}-1-(4-methoxybenzenesulfonyl)-3-((S)-2-oxazol-2-yl-pyrrolidin-1-yl)-1,3-dihydroindol-2-one]
16 | 10 to 100 | COc1ccc(S(=O)(=O)N2C(=O)C(NCc3ncco3)(c3cc(CN(C)C)ccc3OC)c3cc(Cl)ccc32)cc1 (centres unmarked) [Example 108, 5-Chloro-3-(5-dimethylaminomethyl-2-methoxyphenyl)-1-(4-methoxybenzenesulfonyl)-3-[(oxazol-2-ylmethyl)amino]-1,3-dihydroindol-2-one]
17 | 10 to 100 | COc1ccc(S(=O)(=O)N2C(=O)C(NCc3ncco3)(c3cc(CN4CCCC4)ccc3OC)c3cc(Cl)ccc32)cc1 (centres unmarked) [Example 109, 5-Chloro-1-(4-methoxybenzenesulfonyl)-3-(2-methoxy-5-pyrrolidin-1-ylmethylphenyl)-3-[(oxazol-2-ylmethyl)amino]-1,3-dihydroindol-2-one]
18 | 10 to 100 | COc1ccc(S(=O)(=O)N2C(=O)C(NCc3ncco3)(c3cc(CN4CCN(C)CC4)ccc3OC)c3cc(Cl)ccc32)cc1 (centres unmarked) [Example 110, 5-Chloro-1-(4-methoxybenzenesulfonyl)-3-[2-methoxy-5-(4-methylpiperazin-1-ylmethyl)phenyl]-3-[(oxazol-2-ylmethyl)amino]-1,3-dihydroindol-2-one]
19 | 10 to 100 | COc1ccc(S(=O)(=O)N2C(=O)C(NCc3ncco3)(c3cc(CNCCO)ccc3OC)c3cc(Cl)ccc32)cc1 (centres unmarked) [Example 111, 5-Chloro-3-{5-[(2-hydroxyethylamino)methyl]-2-methoxyphenyl}-1-(4-methoxybenzenesulfonyl)-3-[(oxazol-2-ylmethyl)amino]-1,3-dihydroindol-2-one]
20 | < 10 | COc1ccc(S(=O)(=O)N2C(=O)C(c3cc(CN4CCNCC4)ccc3OC)(N3C[C@H](O)C[C@H]3c3ncco3)c3cc(Cl)ccc32)cc1 (stereo partly drawn) [Example 113, 5-Chloro-3-((2S,4R)-4-hydroxy-2-oxazol-2-yl-pyrrolidin-1-yl)-1-(4-methoxybenzenesulfonyl)-3-(2-methoxy-5-(piperazin-1-ylmethyl)phenyl)-1,3-dihydroindol-2-one]
21 | < 10 | COc1ccc(S(=O)(=O)N2C(=O)C(c3cc(CN4CCCC4)ccc3OC)(N3C[C@H](O)C[C@H]3c3ncco3)c3cc(Cl)ccc32)cc1 (stereo partly drawn) [Example 114, 5-Chloro-3-((2S,4R)-4-hydroxy-2-oxazol-2-yl-pyrrolidin-1-yl)-1-(4-methoxybenzenesulfonyl)-3-(2-methoxy-5-(pyrrolidin-1-ylmethyl)phenyl)-1,3-dihydroindol-2-one]
22 | < 10 | CCCNCc1ccc(OC)c(C2(N3C[C@H](O)C[C@H]3c3ncco3)C(=O)N(S(=O)(=O)c3ccc(OC)cc3)c3ccc(Cl)cc32)c1 (stereo partly drawn) [Example 115, 5-Chloro-3-((2S,4R)-4-hydroxy-2-oxazol-2-yl-pyrrolidin-1-yl)-1-(4-methoxybenzenesulfonyl)-3-(2-methoxy-5-(propylaminomethyl)phenyl)-1,3-dihydroindol-2-one]
23 | < 10 | CCCNCc1ccc(OC)c(C2(N3CCC[C@H]3c3ncco3)C(=O)N(S(=O)(=O)c3ccc(OC)cc3)c3ccc(Cl)cc32)c1 (stereo partly drawn) [Example 116, 5-Chloro-1-(4-methoxybenzenesulfonyl)-3-(2-methoxy-5-(propylaminomethyl)phenyl)-3-((S)-2-oxazol-2-yl-pyrrolidin-1-yl)-1,3-dihydroindol-2-one]
